Measurements as given in patent US20020019527A1 (priority 2000, published 2002).
Structures can show the parent of a compound that is named as a salt.

Biological target: T1, Farnesyltransferase (FTase) (Bos taurus, UniProt P29702+P49355)
T1 construct: precipitation from a beef brain homogenate; from tissue; host or cells: bovine brain
Assay: Farnesyltransferase inhibition (scintillation proximity assay, [3H]-FPP / biotin-K-ras peptide)
Type: biochemical, bovine
Conditions: compound at 10^−6 M; bovine FTase, 37° C., 30 minutes
Experimental: Farnesyltransferase (FTase) or geranylgeranyltransferase I (GGTase I) fractions were isolated from bovine brains and purified by a series of methods which separate FTase from GGTase I and GGTase I from GGTase II. The methods involved a partial purification of all three enzymes by precipitation from a beef brain homogenate with 30% to 50% saturated […] followed by chromatography on DEAE Sepharose. […] The catalytic purity of each enzyme was assayed separately with substrate acceptor proteins specific for that enzyme. After quickly freezing in liquid nitrogen, the various prenyl transferases were stored at −80° C.
The quenched reactions stood for 1 hour before analysis in a Packard TopCount scintillation counter. Purified compounds were dissolved in 100% ethanol and diluted 10-fold into the assay.

T1 sequence (P49355 whole entry, one chain of several): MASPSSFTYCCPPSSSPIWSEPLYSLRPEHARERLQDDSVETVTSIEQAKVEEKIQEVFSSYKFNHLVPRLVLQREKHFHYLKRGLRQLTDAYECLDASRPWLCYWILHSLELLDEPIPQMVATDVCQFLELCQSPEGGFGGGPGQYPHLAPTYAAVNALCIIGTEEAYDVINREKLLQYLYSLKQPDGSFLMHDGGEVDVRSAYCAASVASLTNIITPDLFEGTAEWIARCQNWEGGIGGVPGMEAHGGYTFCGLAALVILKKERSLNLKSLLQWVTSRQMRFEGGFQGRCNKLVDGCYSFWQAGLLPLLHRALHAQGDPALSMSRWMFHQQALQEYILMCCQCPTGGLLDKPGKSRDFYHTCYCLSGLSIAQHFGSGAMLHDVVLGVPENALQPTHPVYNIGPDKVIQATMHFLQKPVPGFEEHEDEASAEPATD

Row | Structure (SMILES) | inhibition at 1 µM
1 | Cn1cncc1C(OCc1ccc(Cl)c(Cl)c1)c1ccc(C#N)c(-c2ccccc2C(F)(F)F)c1 (stereo not drawn) [Example 248, 5-(((3,4-dichlorobenzyl)oxy)(1-methyl-1H-imidazol-5-yl)methyl)-2′-(trifluoromethyl)(1,1′-biphenyl)-2-carbonitrile hydrochloride] | 98%
2 | CN(Cc1cncn1C)c1ccc(C#N)c(-c2cccc3ccccc23)c1 [Example 227, 4-(methyl((1-methyl-1H-imidazol-5-yl)methyl)amino)-2-(1-naphthyl)benzonitrile] | 100%
3 | Cn1cncc1C(OCc1cccc(C#N)c1)c1ccc(C#N)c(-c2cccc3ccccc23)c1 (stereo not drawn) [Example 262, 4-(((3-cyanobenzyl)oxy)(1-methyl-1H-imidazol-5-yl)methyl)-2-(1-naphthyl)benzonitrile] | 100%
4 | Cn1cncc1C(OCc1ncc(C(F)(F)F)cc1Cl)c1ccc(C#N)c(-c2cccc3cccnc23)c1 (stereo not drawn) [Example 246, 4-(((3-chloro-5-(trifluoromethyl)-2-pyridinyl)methoxy)(1-methyl-1H-imidazol-5-yl)methyl)-2-(8-quinolinyl)benzonitrile] | 90%
5 | Cn1cncc1C(OCc1ccc(C(=O)O)cc1)c1ccc(C#N)c(-c2cccc3cccnc23)c1 (stereo not drawn) [Example 243, 4-(((4-cyano-3-(8-quinolinyl)phenyl)(1-methyl-1H-imidazol-5-yl)methoxy)methyl)benzoic acid dihydrochloride] | 82%
6 | Cn1cncc1C(OCc1ccccc1)c1ccc(C#N)c(C2CCCCC2)c1 (stereo not drawn) [Example 100, 4-((benzyloxy)(1-methyl-1H-imidazol-5-yl)methyl)-2-cyclohexylbenzonitrile hydrochloride] | 83%
7 | Cn1cncc1C(OCc1ccc(C(F)(F)F)cc1)c1ccc(C#N)c(-c2cccc3ccccc23)c1 (stereo not drawn) [Example 65, 4-((1-methyl-1H-imidazol-5-yl)((4-(trifluoromethyl)benzyl)oxy)methyl)-2-(1-naphthyl)benzonitrile hydrochloride] | 100%
8 | Cc1ccccc1-c1cc(C(OCc2ccc(F)cc2)c2cncn2C)ccc1C#N (stereo not drawn) [Example 118, 5-(((4-fluorobenzyl)oxy)(1-methyl-1H-imidazol-5-yl)methyl)-2′-methyl(1,1′-biphenyl)-2-carbonitrile hydrochloride] | 90%
9 | Cn1cncc1C(OCc1ccc(C#N)cc1)c1ccc(C#N)c(-c2ccccc2CO)c1 (stereo not drawn) [Example 204, 5-(((4-cyanobenzyl)oxy)(1-methyl-1H-imidazol-5-yl)methyl)-2′-(hydroxymethyl)(1,1′-biphenyl)-2-carbonitrile] | 96%
10 | CC(NC(c1ccc(C#N)c(-c2cccc3ccccc23)c1)c1cncn1C)c1ccc(C#N)cc1 (stereo not drawn) [Example 36, 4-(((1-(4-cyanophenyl)ethyl)amino)(1-methyl-1H-imidazol-5-yl)methyl)-2-(1-naphthyl)benzonitrile dihydrochloride] | 100%
11 | Cc1ccccc1-c1cc(C(OCc2cccc(C#N)c2)c2cncn2C)ccc1C#N (stereo not drawn) [Example 113, 5-(((3-cyanobenzyl)oxy)(1-methyl-1H-imidazol-5-yl)methyl)-2′-methyl(1,1′-biphenyl)-2-carbonitrile hydrochloride] | 90%
12 | Cn1cncc1C(OCc1ccccc1)c1ccc(C#N)c(-c2ccc3c4c(cccc24)CC3)c1 (stereo not drawn) [Example 9, 4-((benzyloxy)(1-methyl-1H-imidazol-5-yl)methyl)-2-(1,2-dihydro-5-acenaphthylenyl)benzonitrile hydrochloride] | 64%
13 | Cn1cncc1C(OCc1ccc(C#N)c(I)c1)c1ccc(C#N)c(-c2cccc3ccccc23)c1 (stereo not drawn) [Example 63, 4-(((4-cyano-3-iodobenzyl)oxy)(1-methyl-1H-imidazol-5-yl)methyl)-2-(1-naphthyl)benzonitrile hydrochloride] | 100%
14 | CCCCN(Cc1ccc(C#N)cc1)C(c1ccc(C#N)c(-c2cccc3ccccc23)c1)c1cncn1C (stereo not drawn) [Example 30, 4-((butyl(4-cyanobenzyl)amino)(1-methyl-1H-imidazol-5-yl)methyl)-2-(1-naphthyl)benzonitrile dihydrochloride] | 100%
15 | Cn1cncc1CN(Cc1ccc(C#N)cc1)Cc1ccc(C#N)c(-c2cccc3cccnc23)c1 [Example 114, 4-(((4-cyanobenzyl)((1-methyl-1H-imidazol-5-yl)methyl)amino)methyl)-2-(8-quinolinyl)benzonitrile] | 99%
16 | Cc1ccccc1-c1cc(C(OCc2cccc(Br)c2)c2cncn2C)ccc1C#N (stereo not drawn) [Example 184, 5-(((3-bromobenzyl)oxy)(1-methyl-1H-imidazol-5-yl)methyl)-2′-methyl(1,1′-biphenyl)-2-carbonitrile hydrochloride] | 95%
17 | Cn1cncc1C(OCc1ccc(C#N)cc1)c1ccc(C#N)c(-c2ccccc2C(F)(F)F)c1 (stereo not drawn) [Example 201, 5-(((4-cyanobenzyl)oxy)(1-methyl-1H-imidazol-5-yl)methyl)-2′-(trifluoromethyl)(1,1′-biphenyl)-2-carbonitrile hydrochloride] | 99%

Row | Structure (SMILES) | inhibition at 1 µM
18 | Cn1cncc1C(NCc1ccc(C(N)=O)cc1)c1ccc(C#N)c(-c2cccc3ccccc23)c1 (stereo not drawn) [Example 58, 4-((((4-cyano-3-(1-naphthyl)phenyl)(1-methyl-1H-imidazol-5-yl)methyl)amino)methyl)benzamide dihydrochloride] | 100%
19 | Cn1cncc1C(O)(C#Cc1ccccc1)c1ccc(C#N)c(-c2cccc3ccccc23)c1 (stereo not drawn) [Example 111, 4-(1-hydroxy-1-(1-methyl-1H-imidazol-5-yl)-3-phenyl-2-propynyl)-2-(1-naphthyl)benzonitrile] | 100%
20 | Cn1cncc1C(OCc1cccc(Cl)c1)c1ccc(C#N)c(-c2cccc3ccccc23)c1 (stereo not drawn) [Example 273, 4-((1-methyl-1H-imidazol-5-yl)((3-chlorobenzyl)oxy)methyl)-2-(1-naphthyl)benzonitrile hydrochloride] | 100%
21 | Cc1ccccc1-c1cc(C(OCc2noc(-c3ccccc3)n2)c2cncn2C)ccc1C#N (stereo not drawn) [Example 171, 2′-methyl-5-((1-methyl-1H-imidazol-5-yl)((5-phenyl-1,2,4-oxadiazol-3-yl)methoxy)methyl)(1,1′-biphenyl)-2-carbonitrile hydrochloride] | 75%
22 | N#Cc1ccc(CN(CCC2CCCCC2)C(=O)Cn2ccnc2)cc1-c1cccc2ccccc12 [Example 85, N-(4-cyano-3-(1-naphthyl)benzyl)-N-(2-cyclohexylethyl)-2-(1H-imidazol-1-yl)acetamide] | 46%
23 | Cn1cncc1CN(CCCc1ccccc1)c1ccc(C#N)c(-c2cccc3ccccc23)c1 [Example 230, 4-(((1-methyl-1H-imidazol-5-yl)methyl)(3-phenylpropyl)amino)-2-(1-naphthyl)benzonitrile] | 100%
24 | Cc1ccccc1-c1cc(N(Cc2cccc(C#N)c2)Cc2cncn2C)ccc1C#N [Example 237, 5-((3-cyanobenzyl)((1-methyl-1H-imidazol-5-yl)methyl)amino)-2′-methyl(1,1′-biphenyl)-2-carbonitrile] | 100%
25 | CCCCCCN(Cc1cncn1C)c1ccc(C#N)c(-c2cccc3ccccc23)c1 [Example 233, 4-(hexyl((1-methyl-1H-imidazol-5-yl)methyl)amino)-2-(1-naphthyl)benzonitrile] | 100%
26 | Cn1cncc1C(OCc1ccc(C#N)c(F)c1)c1ccc(C#N)c(-c2cccc3ccccc23)c1 (stereo not drawn) [Example 77, 4-(((4-cyano-3-fluorobenzyl)oxy)(1-methyl-1H-imidazol-5-yl)methyl)-2-(1-naphthyl)benzonitrile hydrochloride] | 100%
27 | Cn1cncc1C(NCc1ccc(Cl)c(Cl)c1)c1ccc(C#N)c(-c2cccc3ccccc23)c1 (stereo not drawn) [Example 47, 4-(((3,4-dichlorobenzyl)amino)(1-methyl-1H-imidazol-5-yl)methyl)-2-(1-naphthyl)benzonitrile] | 100%
28 | Cc1ccccc1-c1cc(NCc2cncn2C)ccc1C#N [Example 225, 2′-methyl-5-(((1-methyl-1H-imidazol-5-yl)methyl)amino)(1,1′-biphenyl)-2-carbonitrile] | 50%
29 | Cn1cncc1C(NCc1ccc(C#N)c(Br)c1)c1ccc(C#N)c(-c2cccc3ccccc23)c1 (stereo not drawn) [Example 33, 4-(((3-bromo-4-cyanobenzyl)amino)(1-methyl-1H-imidazol-5-yl)methyl)-2-(1-naphthyl)benzonitrile dihydrochloride] | 100%
30 | Cn1cncc1C(OCc1ccc(C#N)cc1)c1ccc(C#N)c(I)c1 (stereo not drawn) [Example 60, 4-(((4-cyanobenzyl)oxy)(1-methyl-1H-imidazol-5-yl)methyl)-2-iodobenzonitrile hydrochloride] | 96%
31 | Cc1ccccc1-c1cc(C(OCc2ccc(Cl)cc2Cl)c2cncn2C)ccc1C#N (stereo not drawn) [Example 157, 5-(((2,4-dichlorobenzyl)oxy)(1-methyl-1H-imidazol-5-yl)methyl)-2′-methyl(1,1′-biphenyl)-2-carbonitrile hydrochloride] | 97%
32 | Cn1cncc1CN(Cc1ccc(S(C)(=O)=O)cc1)Cc1ccc(C#N)c(-c2cccc3ccccc23)c1 [Example 195, 4-((((1-methyl-1H-imidazol-5-yl)methyl)(4-(methylsulfonyl)benzyl)amino)methyl)-2-(1-naphthyl)benzonitrile dihydrochloride] | 98%
33 | Cn1cncc1C(NC1CCN(Cc2ccccc2)CC1)c1ccc(C#N)c(-c2cccc3ccccc23)c1 (stereo not drawn) [Example 55, 4-(((1-benzyl-4-piperidinyl)amino)(1-methyl-1H-imidazol-5-yl)methyl)-2-(1-naphthyl)benzonitrile trihydrochloride] | 100%
